Measured values taken from ChEMBL document CHEMBL3351849, “Synthesis, biological activity and mechanistic insights of 1-substituted cyclopropylamine derivatives: a novel class of irreversible inhibitors of histone demethylase KDM1A” (Eur J Med Chem, 2014).
Activity calls are given as the source filed them. The rule behind the calls is not given here.

Legend:
[1] = biological target: T1, Amine oxidase [flavin-containing] B (Homo sapiens, UniProt P27338)
T1 sequence (P27338 whole entry): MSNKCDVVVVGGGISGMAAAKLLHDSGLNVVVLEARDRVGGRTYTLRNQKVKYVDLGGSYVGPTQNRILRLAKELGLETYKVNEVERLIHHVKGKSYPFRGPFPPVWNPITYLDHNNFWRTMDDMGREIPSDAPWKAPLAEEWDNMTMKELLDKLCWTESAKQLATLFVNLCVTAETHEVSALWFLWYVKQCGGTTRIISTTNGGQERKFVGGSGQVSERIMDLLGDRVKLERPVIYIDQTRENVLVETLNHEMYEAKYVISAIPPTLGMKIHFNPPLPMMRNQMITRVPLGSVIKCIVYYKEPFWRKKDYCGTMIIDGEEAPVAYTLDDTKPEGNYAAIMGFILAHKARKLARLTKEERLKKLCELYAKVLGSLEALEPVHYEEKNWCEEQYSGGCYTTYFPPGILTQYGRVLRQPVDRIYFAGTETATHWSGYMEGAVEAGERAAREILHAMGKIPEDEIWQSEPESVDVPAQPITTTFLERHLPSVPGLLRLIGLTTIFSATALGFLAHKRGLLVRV

[2] = biological target: T2, Amine oxidase [flavin-containing] A (Homo sapiens, UniProt P21397)
T2 sequence (P21397 whole entry): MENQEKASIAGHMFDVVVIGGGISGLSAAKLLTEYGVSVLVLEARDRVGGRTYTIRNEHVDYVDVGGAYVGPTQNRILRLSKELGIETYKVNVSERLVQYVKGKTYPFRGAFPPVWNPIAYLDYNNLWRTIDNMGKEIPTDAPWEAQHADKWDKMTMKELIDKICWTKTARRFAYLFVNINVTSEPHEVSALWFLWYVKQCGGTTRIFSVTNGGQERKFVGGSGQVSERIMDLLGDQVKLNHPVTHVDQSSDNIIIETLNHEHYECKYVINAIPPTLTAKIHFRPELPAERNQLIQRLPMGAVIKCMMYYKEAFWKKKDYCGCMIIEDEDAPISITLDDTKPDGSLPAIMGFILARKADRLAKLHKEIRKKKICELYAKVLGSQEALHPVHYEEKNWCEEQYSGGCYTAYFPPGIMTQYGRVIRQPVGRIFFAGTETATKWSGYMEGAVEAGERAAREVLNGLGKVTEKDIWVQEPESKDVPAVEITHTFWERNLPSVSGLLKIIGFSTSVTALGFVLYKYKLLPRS

[3] = biological target: T3, Lysine-specific histone demethylase 1A (Homo sapiens, UniProt O60341); experiment: Inhibition of human recombinant KDM1A/CoREST expressed in Escherichia coli assessed as reduction in H2O2 release at 22 uM using synthetic mono-methylated H3-K4 peptide (21 amino acids) substrate by horseradish peroxidase coupled enzyme assay
[4] = biological target: T3, Lysine-specific histone demethylase 1A
[5] = biological target: T3, Lysine-specific histone demethylase 1A; experiment: Inhibition of human recombinant KDM1A/CoREST expressed in Escherichia coli assessed as reduction in H2O2 release at 100 uM using synthetic mono-methylated H3-K4 peptide (21 amino acids) substrate by horseradish peroxidase coupled enzyme assay
[6] = biological target: T3, Lysine-specific histone demethylase 1A; remark: listed apart in the source
[7] = biological target: T3, Lysine-specific histone demethylase 1A; experiment: Inhibition of KDM1A in human NB4 cells assessed as increase in Gfi-1b mRNA expression up to 100 uM incubated for 24 hrs by quantitative RT-PCR method; assay type: cell-based; settings: NB-4

Row | SMILES | IC50 [1] [nM] | IC50 [2] [nM] | other results
1 | CC[C@@]1(N)C[C@H]1c1ccccc1 | 33300 | 6800 | 
2 | N[C@]1(c2ccccc2)C[C@H]1c1ccccc1 | 5550 | 235 | 
3 | N[C@]1(Cc2ccccc2)C[C@H]1c1ccccc1 | 28100 | 2590 | 
4 | CC[C@]1(N)C[C@@H]1c1ccccc1 | 88 | 1430 | 
5 | N[C@@]1(c2ccccc2)C[C@@H]1c1ccccc1 | 11500 | 94 | 
6 | N[C@@]1(Cc2ccccc2)C[C@@H]1c1ccccc1 | 74300 | 8310 | 
7 | NCC(=O)c1ccccc1 |  |  | inhibition [3]: 30%
8 | N[C@]1(CCc2ccccc2)C[C@H]1c1ccccc1 (racemic) | 941 | 21.4 | 
9 | CC[C@@]1(N)C[C@@H]1c1ccccc1 (relative stereo) | 190 | 1920 | 
10 | CCC[C@@]1(N)C[C@H]1c1ccccc1 (relative stereo) | 600 | 527 | 
11 | N[C@@]1(c2ccccc2)C[C@H]1c1ccccc1 (relative stereo) | 10400 | 82.8 | 
12 | N[C@]1(Cc2ccccc2)C[C@@H]1c1ccccc1 (relative stereo) | 50500 | 3510 | 
13 | N[C@]1(Cc2ccc3ccccc3c2)C[C@H]1c1ccccc1 (relative stereo) | 12700 | 1300 | 
14 | CCOC(=O)[C@]1(N)C[C@H]1c1ccccc1 (relative stereo) |  |  | IC50 [4]: > 100000 nM; inhibition [5]: 11%
15 | N[C@@]1(C(=O)O)C[C@H]1c1ccccc1 (relative stereo) |  |  | IC50 [4]: > 100000 nM; inhibition [5]: 21%
16 | NC[C@@H]1C[C@H]1c1ccccc1 (relative stereo) |  |  | inhibition [5]: 0%
17 | N[C@@H]1C[C@@H]1Oc1ccccc1 (relative stereo) |  |  | inhibition [5]: 0%
18 | N[C@H]1C[C@@H]1Oc1ccccc1 (relative stereo) |  |  | inhibition [5]: 0%
19 | C#CCN(C)CCCOc1ccc(Cl)cc1Cl [CLORGILINE] |  |  | IC50 [6]: Not Active; inhibition [7]: inactive
